Measurements taken from PubChem BioAssay AID179 (DTP/NCI, 2004).
The source made the active and inactive calls.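 The calls were made as follows: active = compounds giving half or more protection of infected cells from virus-caused growth loss, again on retest; inactive = the rest.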 Where a SMILES comes first, the peptide text is derived from it.

Test system: CEM cells HIV-1 protection, formazan growth assay
Test: NCI AIDS Antiviral Assay
Conditions: for IC50: measured here: growth of uninfected CEM cells
Summary of the method: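 Human CEM cells, uninfected and HIV-1-infected, received five drug concentrations, and growth was read by soluble formazan assay. Compounds giving at least 50% protection were retested; reproducible 100% protection defined confirmed active.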

Structure (SMILES) | outcome | EC50 [µM] | IC50 [µM]
COc1cc2oc(-c3ccc(O)cc3)c(OC3OC(C)C(O)C(O)C3O)c(=O)c2c(O)c1OC (stereo not drawn) | inactive | – | –
N#Cc1c(-c2ccccc2)nc(-c2ccccc2)sc1=S | – | > 100 | > 100
NC(Cc1ccc(B(O)O)cc1)C(=O)NC(CO)CO (stereo not drawn) | – | > 200 | > 200
CC(C)(C)NC(=O)CCC(CC(=O)NC(C)(C)C)S(=O)(=O)O (stereo not drawn) | – | > 200 | > 200
CCN(CCO)CCCC(C)Nc1ccnc2cc(Cl)ccc12 (stereo not drawn) | – | > 200 | 64.6
CC(C)[P+](c1ccccc1)(c1ccccc1)c1ccccc1 | – | > 200 | 5.5
C/C(=C\CNc1ncnc2c1ncn2CCC#N)CO | – | > 200 | > 200
CCN(CC)c1ccc(/C=C2/C[N+](C)(C)C/C(=C/c3ccc(N(CC)CC)cc3)C2=O)cc1 | – | > 6.61 | 6.46
O=NN1CCN=C1c1ccc([N+](=O)[O-])cc1 | – | > 112 | 33.9
COc1ccc(NC(C)=O)cc1N1C(=O)/C(=C\c2cc(OC)c(OC)c(OC)c2)S(=O)(=O)C1c1ccccc1 (stereo not drawn) | – | > 200 | 91.2
S=C1NC2=C(CSC/C2=C\c2ccccc2)C(c2ccccc2)N1 (stereo not drawn) | – | > 200 | 37.2
COc1cc2c(c3oc(=O)c4c(c13)CCC4=O)[C@@H]1C=CO[C@@H]1O2 | – | > 100 | 69.2
CC(=N\NC(=O)c1ccccc1)/C(C)=N/NC(=O)c1ccccc1 | – | > 30.9 | > 30.9
NCCCCC(NC(=O)C(CO)NC(=O)C(CO)NC(=O)CN)C(=O)NC(CO)C(=O)NC(CCCCN)C(=O)N1CCCC1C(=O)NC(CCCCN)C(=O)NC(CC(=O)O)C(N)=O (stereo not drawn) (H-GSSKSKPKD-NH2; configuration not given here) | – | > 269 | > 269
OCC1OC(n2cnc3c2NC=NCC3O)C(Cl)C1O (stereo not drawn) | – | > 295 | > 295
O=C(CC(=O)n1nc(-c2ccccc2)c(N=Nc2ccc([N+](=O)[O-])cc2)c1-c1ccccc1)Nc1ccc(Cl)cc1 | – | > 45.7 | > 45.7
Cn1c([N+](=O)[O-])cnc1CSc1ccc(C#N)cc1 | – | 117 | > 200
O=P1(Nc2ccccc2)OCCCN1Cc1ccc(Cl)c(Cl)c1 (stereo not drawn) | – | > 200 | 53.7
NC(N)=NS(=O)(=O)c1ccc(Nc2c3ccccc3nc3c(C(=O)NC(CO)(CO)CO)cccc23)cc1 | – | > 200 | 3.31
O=C(CCc1nnc2s/c(=C\c3ccccc3)c(=O)n12)Nc1cc(Cl)ccc1Cl | – | > 11.7 | > 11.7
Cc1cc(O)c2c(c1)C[C@@H](O)C1=C2C(=O)c2c(O)ccc(OC3CC(O)C(OC4CC(OC5CCC(OC6CC(O)C(OC7CC(OC8CCC(O)C(C)O8)C(O)C(C)O7)C(C)O6)C(C)O5)C(O)C(C)O4)C(C)O3)c2C1=O (stereo partly drawn) | – | > 43.7 | 0.2
O=C1OC(OC2OC(=O)c3ccccc32)c2ccccc21 (stereo not drawn) | – | > 200 | > 200

Structure (SMILES) | outcome | EC50 [µM] | IC50 [µM]
COc1ccc2c(c1)OC[C@@H]1c3cc(NC(=O)c4ccccc4)c(OCc4ccccc4)cc3N(S(=O)(=O)c3ccccc3)[C@H]21 | – | > 200 | > 200
O=C(O)c1ccc2c(n1)-c1nc3nc4c(cc3cc1CC2)CCc1ccc(C(=O)O)nc1-4 | – | > 200 | 21.9
N#Cc1nc(/C=C/c2cccs2)oc1N | – | > 200 | 107
C=C(C[N+](C)(C)C)N/N=C/c1oc(-c2ccc(OC)c(OC)c2)c(-c2ccc(OC)c(OC)c2)c1[N+](=O)[O-] | – | > 12.9 | > 12.9
CSc1nc(Cl)c2c(n1)Sc1nc3ccccc3n1C2O (stereo not drawn) | – | > 200 | 6.31
COC1=CC(=O)C2C(C1=O)[C@@H]1c3ccccc3C[C@H]21 (stereo partly drawn) | – | > 195 | > 100
CS(=O)(=O)Oc1nn2c(OS(C)(=O)=O)nnc2s1 | – | > 200 | 28.8
COC(=O)c1cc(C(=CCCCCN=[N+]=[N-])c2cc(Cl)c(OC)c(C(=O)OC)c2)cc(Cl)c1OC | – | 19.1 | > 200
O[C@H]1[C@H](O)[C@@H](O)CN2CC[C@H](O)[C@H]12 | – | 204 | 1260
Nc1nc(N)c(N=O)c(=O)[nH]1 | – | > 200 | > 200
O=C1C=CC2=C3c4cc(O)c(O)cc4CC3(O)COC2=C1O (stereo not drawn) | – | > 45.7 | 40.7
O=C(NO)C(=O)Nc1cc(Cl)ccc1Cl | – | > 145 | 66.1
CC1=C(C(=O)Nc2ccccc2C)C(/C=C/c2ccccc2)C(C(=O)Nc2ccccc2C)=C(C)N1 | inactive | – | –
Cc1cn(C2CC3C(COCN3O)O2)c(=O)[nH]c1=O (stereo not drawn) | – | > 200 | 166
COc1cccc(C(=O)C#Cc2cnc(OC)nc2OC)c1 | – | > 0.2 | 0.0437
ClC1(Cl)C2CCOC21n1cnc2ccccc21 (stereo not drawn) | – | > 200 | 102
CCCCCCCC(=O)OCC1OC(n2cc(F)c(=O)[nH]c2=O)C(N)C(O)C1O (stereo not drawn) | – | > 309 | > 309
O=C1c2cccc(O)c2C(=O)c2cccc(O)c21 | – | > 4.37 | > 4.37
O=C(Nc1ccc(C(F)(F)F)cc1[N+](=O)[O-])C(=O)C1NC(=S)NC1=O (stereo not drawn) | – | > 95.5 | > 95.5
CC(C)(C)OC(=O)C1/C(=C/CBr)CN1C(=O)OC(C)(C)C (stereo not drawn) | – | > 200 | 3.98
N.N.N.N.N.O=S(=O)([O-])S(=O)(=O)[O-].[Co+3] | – | > 42.7 | > 42.7
CSC(C)CS(=O)(=O)O (stereo not drawn) | – | > 200 | > 200

Structure (SMILES) | outcome | EC50 [µM] | IC50 [µM]
CC(=O)NCCSSCCCCS(=O)O | – | > 200 | 3.16
CC(=O)OC(C)(C)CCC(=O)[C@](C)(O)[C@H]1[C@H](O)C[C@@]2(C)[C@@H]3CC=C4C(C)=C(OC5OC(CO)C(O)C(O)C5O)C(=O)C[C@@H]4[C@]3(C)C(=O)C[C@]12C (stereo partly drawn) | – | > 200 | > 200
C=C1N2[C@@H](CO)[C@H](c3ccccc3)O[C@]2(C)CC[C@]1(C)Cc1ccccc1 | – | > 200 | 83.2
CC(=O)NC1(C)C2CCC3(C)N=C(C)C1CC3C2 (stereo not drawn) | inactive | – | –
CC(C)CC1=C(C(=O)c2ccoc2)CC(C)C1 (stereo not drawn) | – | > 200 | > 200
CC1(Br)C(=O)NC(=O)N([C@H]2C[C@H](O)[C@@H](CO)O2)C1N=[N+]=[N-] (stereo partly drawn) | – | 145 | > 200
CC1=CC(=O)N(n2c(-c3ccccc3)n[nH]c2=O)C1=O | – | > 200 | > 200
O=[N+]([O-])c1ccc2nncc(N3CC3)c2c1 | inactive | – | –
NNC(N)=Nc1cccc2ccccc12 | – | > 200 | > 200
NC1=NS(=O)(=O)Nc2nn(-c3ccccc3)nc21 | – | > 339 | > 339
CCOC(=O)N1N=NC2C3OC(C[C@@]3(C#N)OC(C)=O)[C@H]21 (stereo partly drawn) | inactive | – | –
Cc1cccc(-c2nc3sc(-c4cccc(C)n4)nc3s2)n1 | inactive | – | –
O=C(NCCn1ccnn1)Nc1ccccc1 | – | > 200 | > 200
Cn1c(=O)n2n(c1=O)C1C(=CC2)C2C=CC1n1c(=O)n(C)c(=O)n12 (stereo not drawn) | – | > 200 | > 200
O=S(=O)(NCCO)c1cc[c]([Sb](=[O])([OH])[OH])cc1 | – | > 200 | > 200
COc1ccc2[nH]cc(C(=O)C(=O)NC34CC5CC(CC(C5)C3)C4)c2c1 | – | > 200 | 6.03
COc1ccc(C2S/C(=C\c3ccccc3)C(=O)N2NC(=O)Cc2ccccc2)cc1 (stereo not drawn) | – | > 23.4 | 19.1
OCC1NC(COC2OC(CO)C(O)C(O)C2O)C(O)C(O)C1O (stereo not drawn) | inactive | – | –
CN(CCCNC(=O)c1cn(C)c2c1ccc1ccccc12)CCCNC(=O)c1cn(C)c2c1ccc1ccccc12 | – | > 200 | 2.88
O=C1C(CN(Cc2ccccc2)Cc2ccccc2)CCCC1CN(Cc1ccccc1)Cc1ccccc1 (stereo not drawn) | inactive | > 26.3 | > 26.3
CC(=O)O[C@@H]1CC[C@]2(C)C3CC[C@]4(C)C(C(C)CCc5nc6ccccc6[nH]5)CCC4C3[C@H](OC(C)=O)C[C@@H]2C1 (stereo partly drawn) | – | > 50.1 | 12.9
O=c1cc(CCc2ccccc2)oc2c(O)ccc(O)c12 | inactive | – | –

Structure (SMILES) | outcome | EC50 [µM] | IC50 [µM]
CC(C)(C)C(=O)/C=C(\OB(F)F)C(C)(C)C | – | > 200 | > 200
NC(CSS(=O)(=O)O)=NCCSS(=O)(=O)O | – | > 200 | 110
CNC(=S)N/N=C(\C)c1ccc(OC)cc1O | – | > 200 | 13.8
CCCNC(=O)c1nc(SC)sc1NC(=O)c1ccc(OC)cc1 | – | > 200 | > 200
COc1cc(C(=O)NC(CCN)(c2ccccc2)c2ccccc2)cc(OC)c1OC | – | > 200 | 67.6
C=CCC(C(=O)OC)C1(C(=O)OC)c2[nH]c3ccccc3c2CCN1Cc1ccccc1 (stereo not drawn) | – | > 39.8 | > 39.8
CN1C(=O)CC2C(=O)N(Cc3ccccc3)C(=O)C2C1=O (stereo not drawn) | – | > 347 | > 347
COC(=O)/N=c1\cc(N2CC=CCC2)nc(N)n1O | – | > 200 | > 200
CC12COC3(C)CCC(C)(OC1)N23 (stereo not drawn) | – | > 490 | > 490
C[C@@H](NC(=O)c1ccccc1SC(=O)OCCBr)C(N)=O | – | 4.57 | > 200
O=C1Nc2ccccc2C12CCCC2 | inactive | – | –
COc1cc(C(=O)CBr)c(OC)cc1C | – | > 200 | > 200
O=C(NC(=O)c1cn(CCNCCO)c(=O)[nH]c1=O)OCc1ccccc1 | inactive | – | –
CC(C)c1cccc(C(C)C)c1NC(=O)/C(Cc1nc2ccc(Cl)cc2[nH]c1=O)=N\NC(=O)C[N+](C)(C)C | – | > 162 | > 162
Cc1oc2nc(N(C)C)n3c(C)nnc3c2c1C | inactive | – | –
[N-]=[N+]=C(S(=O)(=O)O)S(=O)(=O)O | – | > 200 | > 200
COc1cc2c(c(OC)c1OC)C1CCCCC1SCC2=O (stereo not drawn) | – | > 155 | > 155
NC(Cc1ccccc1)c1nccs1 (stereo not drawn) | – | > 200 | > 200
O=C1CC[C@H](O)Cc2ccc(O)c(c2)-c2cc(ccc2O)CC1O (stereo partly drawn) | – | > 759 | 724
C=CCN=C([S-])Nc1cccc(C(=O)O)c1.[Au+].[Na+] | inactive | – | –
CCOC(=O)c1c(C)nc2c3ccccc3c(C#N)c(C)n12 | – | > 100 | > 100
